Laboratory results published in patent US12534452B2, “N-(1H-imidazol-2-yl)benzamide compound and pharmaceutical composition comprising the same as active ingredient” (KAINOS MEDICINE, INC., priority 2019, dated 2026).

Molecular target: IRAK4 (Homo sapiens (Human), UniProt Q9NWZ3)
Experiment: In vitro IRAK4 phosphorylation activity assay
Assay type: biochemical
Details: [γ-33P]-ATP, myelin basic protein substrate, 40 minutes at room temperature; categories
How it was run: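 Radiometric filter-binding assay, no compound–kinase preincubation; 8 mM MOPS pH 7.0, 0.2 mM EDTA, 10 mM Mg acetate, 0.33 mg/mL myelin basic protein substrate, [γ-33P]-ATP. Reaction 40 min at room temperature, stopped with phosphoric acid, scintillation counting; IC50 reported in categories.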

Sequence of IRAK4 (Q9NWZ3 whole entry): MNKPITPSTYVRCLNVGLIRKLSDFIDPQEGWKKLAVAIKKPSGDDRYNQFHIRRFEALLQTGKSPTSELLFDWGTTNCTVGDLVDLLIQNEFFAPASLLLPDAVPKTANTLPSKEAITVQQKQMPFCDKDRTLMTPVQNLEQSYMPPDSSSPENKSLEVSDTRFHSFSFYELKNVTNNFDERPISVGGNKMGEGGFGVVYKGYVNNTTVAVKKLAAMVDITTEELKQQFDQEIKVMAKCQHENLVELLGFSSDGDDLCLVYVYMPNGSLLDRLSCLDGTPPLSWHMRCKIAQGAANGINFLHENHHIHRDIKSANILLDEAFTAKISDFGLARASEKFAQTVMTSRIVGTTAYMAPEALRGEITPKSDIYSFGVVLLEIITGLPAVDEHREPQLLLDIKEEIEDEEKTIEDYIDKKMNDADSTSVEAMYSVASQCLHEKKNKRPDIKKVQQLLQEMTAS

First: O=C(Nc1nc(CCCCCCN2CCCCC2)cn1-c1ccccc1)c1cccc(-c2ccccn2)c1 [Example 269, N-(1-phenyl-4-(6-(piperidin-1-yl)hexyl)-1H-imidazol-2-yl)-3-(pyridin-2-yl)benzamide]
Second: O=C(Nc1nc(CCCCCCN2CCCCC2)cn1-c1ccccc1)c1cccc(-c2cccnc2)c1 [Example 270, N-(1-phenyl-4-(6-(piperidin-1-yl)hexyl)-1H-imidazol-2-yl)-3-(pyridin-3-yl)benzamide]
The IC50 of the first is higher: > 100 nM for the first, < 50 nM for the second.

Going from `CN(C)C1CCN(C(=O)CCCCCc2cn(-c3ccccc3)c(NC(=O)c3cccc(-c4ccc5scnc5c4)c3)n2)CC1` [Example 291, 3-(benzo[d]thiazol-5-yl)-N-(4-(6-(4-(dimethylamino)piperidin-1-yl)-6-oxohexyl)-1-phenyl-1H-imidazol-2-yl)benzamide] to `O=C(CCCCCc1cn(-c2ccccc2)c(NC(=O)c2cccc(-c3ccc4[nH]ncc4c3)c2)n1)NC1CC1` [Example 238, N-(4-(6-(cyclopropylamino)-6-oxohexyl)-1-phenyl-1H-imidazol-2-yl)-3-(1H-indazol-5-yl)benzamide], the IC50 falls from > 100 nM to < 50 nM.

Compared with `O=C(CCc1cn(-c2ccccc2)c(NC(=O)c2cccc(-c3cn[nH]c3)c2)n1)Nc1ccccn1` [Example 15, N-(4-(3-oxo-3-(pyridin-2-ylamino)propyl)-1-phenyl-1H-imidazol-2-yl)-3-(1H-pyrazol-4-yl)benzamide], `CNC(=O)CCc1cn(-c2ccccc2)c(NC(=O)c2cccc(-c3cn[nH]c3)c2)n1` [Example 33, N-(4-(3-(methylamino)-3-oxopropyl)-1-phenyl-1H-imidazol-2-yl)-3-(1H-pyrazol-4-yl)benzamide] is lower in IC50: > 100 nM for the first, < 50 nM for the second.

`Cn1cc(-c2cccc(C(=O)Nc3nc(CCCCN4CCCC4=O)cn3-c3ccccc3)c2)cn1` [Example 224, 3-(1-methyl-1H-pyrazol-4-yl)-N-(4-(4-(2-oxopyrrolidin-1-yl)butyl)-1-phenyl-1H-imidazol-2-yl)benzamide] and `Cn1cc(-c2cccc(C(=O)Nc3nc(CCCC(=O)N4CC[C@@H](N)C4)cn3-c3ccccc3)c2)cn1` [Example 212, (R)—N-(4-(4-(3-aminopyrrolidin-1-yl)-4-oxobutyl)-1-phenyl-1H-imidazol-2-yl)-3-(1-methyl-1H-pyrazol-4-yl)benzamide] cannot be ordered by IC50: < 50 nM for the first, < 50 nM for the second.

Compared with `CNC(=O)Cc1cn(-c2ccccc2)c(NC(=O)c2cccc(-c3ccncc3)c2)n1` [Example 265, N-(4-(2-(methylamino)-2-oxoethyl)-1-phenyl-1H-imidazol-2-yl)-3-(pyridin-4-yl)benzamide], `CNC(=O)Cc1cn(-c2ccccc2)c(NC(=O)c2cccc(-c3ccc4[nH]ncc4c3)c2)n1` [Example 243, 3-(1H-indazol-5-yl)-N-(4-(2-(methylamino)-2-oxoethyl)-1-phenyl-1H-imidazol-2-yl)benzamide] is lower in IC50: > 100 nM for the first, 50 to 100 nM for the second. The second is the more potent here.

First: Cn1cc(-c2cccc(C(=O)Nc3nc(CCC(=O)Nc4ccccc4)cn3-c3ccccc3)c2)cn1 [Example 193, 3-(1-methyl-1H-pyrazol-4-yl)-N-(4-(3-oxo-3-(phenylamino)propyl)-1-phenyl-1H-imidazol-2-yl)benzamide]
Second: Cn1cc(-c2cccc(C(=O)Nc3nc(CCCC(=O)Nc4ccn(C)n4)cn3-c3ccccc3)c2)cn1 [Example 190, N-(4-(4-((1-methyl-1H-pyrazol-3-yl)amino)-4-oxobutyl)-1-phenyl-1H-imidazol-2-yl)-3-(1-methyl-1H-pyrazol-4-yl)benzamide]
The IC50 of the first is higher: 50 to 100 nM for the first, < 50 nM for the second. The second is the more potent here.

`O=C(CCCc1cn(-c2ccccc2)c(NC(=O)c2cccc(-c3cnn(C(F)F)c3)c2)n1)NC1CC1` [Example 235, N-(4-(4-(cyclopropylamino)-4-oxobutyl)-1-phenyl-1H-imidazol-2-yl)-3-(1-(difluoromethyl)-1H-pyrazol-4-yl)benzamide] and `COC1CCC(NC(=O)CCCc2cn(-c3ccccc3)c(NC(=O)c3cccc(-c4cnn(C)c4)c3)n2)CC1` (stereo not drawn) [Example 161, N-(4-(4-((4-methoxycyclohexyl)amino)-4-oxobutyl)-1-phenyl-1H-imidazol-2-yl)-3-(1-methyl-1H-pyrazol-4-yl)benzamide] cannot be ordered by IC50: < 50 nM for the first, < 50 nM for the second.

`O=C(O)CCCCc1cn(-c2ccccc2)c(NC(=O)c2cccc(-c3cn[nH]c3)c2)n1` [Example 78, 5-(2-(3-(1H-pyrazol-4-yl)benzamido)-1-phenyl-1H-imidazol-4-yl)pentanoic acid] and `CNC(=O)CCCCc1cn(-c2ccccc2)c(NC(=O)c2cccc(-c3cn[nH]c3)c2)n1` [Example 80, N-(4-(5-(methylamino)-5-oxopentyl)-1-phenyl-1H-imidazol-2-yl)-3-(1H-pyrazol-4-yl)benzamide] cannot be ordered by IC50: < 50 nM for the first, < 50 nM for the second.

`O=C(CCCc1cn(-c2ccccc2)c(NC(=O)c2cccc(-c3cn[nH]c3)c2)n1)Nc1ccc(F)cc1` [Example 64, N-(4-(4-((4-fluorophenyl)amino)-4-oxobutyl)-1-phenyl-1H-imidazol-2-yl)-3-(1H-pyrazol-4-yl)benzamide] and `O=C(CCCc1cn(-c2ccccc2)c(NC(=O)c2cccc(-c3cn[nH]c3)c2)n1)Nc1ccccc1F` [Example 65, N-(4-(4-((2-fluorophenyl)amino)-4-oxobutyl)-1-phenyl-1H-imidazol-2-yl)-3-(1H-pyrazol-4-yl)benzamide] cannot be ordered by IC50: < 50 nM for the first, < 50 nM for the second.

First: Cn1cc(-c2cccc(C(=O)Nc3nc(CCCCC(=O)NCCN4CCOCC4)cn3-c3ccccc3)c2)cn1 [Example 198, 3-(1-methyl-1H-pyrazol-4-yl)-N-(4-(5-((2-morpholinoethyl)amino)-5-oxopentyl)-1-phenyl-1H-imidazol-2-yl)benzamide]
Second: CN1CCN(NC(=O)CCCc2cn(-c3ccccc3)c(NC(=O)c3cccc(-c4cnn(C)c4)c3)n2)CC1 [Example 153, 3-(1-methyl-1H-pyrazol-4-yl)-N-(4-(4-((4-methylpiperazin-1-yl)amino)-4-oxobutyl)-1-phenyl-1H-imidazol-2-yl)benzamide]
The IC50 of the first is lower: < 50 nM for the first, 50 to 100 nM for the second. The first is the more potent here.

`Cn1cc(-c2cccc(C(=O)Nc3nc(CCCC(=O)N4CCC[C@H](C(=O)O)C4)cn3-c3ccccc3)c2)cn1` [Example 207, (S)-1-(4-(2-(3-(1-methyl-1H-pyrazol-4-yl)benzamido)-1-phenyl-1H-imidazol-4-yl)butanoyl)piperidine-3-carboxylic acid] and `Cn1cc(-c2cccc(C(=O)Nc3nc(CCCC(=O)N4CCC(O)CC4)cn3-c3ccccc3)c2)cn1` [Example 169, N-(4-(4-(4-hydroxypiperidin-1-yl)-4-oxobutyl)-1-phenyl-1H-imidazol-2-yl)-3-(1-methyl-1H-pyrazol-4-yl)benzamide] cannot be ordered by IC50: < 50 nM for the first, < 50 nM for the second.

`C[C@@H]1CCC[C@H](C)N1C(=O)CCCc1cn(-c2ccccc2)c(NC(=O)c2cccc(-c3cn[nH]c3)c2)n1` [Example 63, N-(4-(4-((2R,6S)-2,6-dimethylpiperidin-1-yl)-4-oxobutyl)-1-phenyl-1H-imidazol-2-yl)-3-(1H-pyrazol-4-yl)benzamide] and `C[C@@H]1CCC[C@H](C)N1C(=O)CCCCc1cn(-c2ccccc2)c(NC(=O)c2cccc(-c3cn[nH]c3)c2)n1` [Example 81, N-(4-(5-((2R,6S)-2,6-dimethylpiperidin-1-yl)-5-oxopentyl)-1-phenyl-1H-imidazol-2-yl)-3-(1H-pyrazol-4-yl)benzamide] cannot be ordered by IC50: < 50 nM for the first, < 50 nM for the second.

Compared with `CN(C(=O)CCCc1cn(-c2ccccc2)c(NC(=O)c2cccc(-c3cnn(C)c3F)c2)n1)C1CC1` [Example 233, N-(4-(4-(cyclopropyl(methyl)amino)-4-oxobutyl)-1-phenyl-1H-imidazol-2-yl)-3-(5-fluoro-1-methyl-1H-pyrazol-4-yl)benzamide], `CN(C)C1CCC(NC(=O)CCCc2cn(-c3ccccc3)c(NC(=O)c3cccc(-c4cnn(C)c4)c3)n2)CC1` (stereo not drawn) [Example 147, N-(4-(4-((4-(dimethylamino)cyclohexyl)amino)-4-oxobutyl)-1-phenyl-1H-imidazol-2-yl)-3-(1-methyl-1H-pyrazol-4-yl)benzamide] is lower in IC50: 50 to 100 nM for the first, < 50 nM for the second. The second is the more potent here.

`O=C(CCc1cn(-c2cccc(Cl)c2)c(NC(=O)c2cccc(-c3cn[nH]c3)c2)n1)Nc1ccccc1` [Example 293, N-(1-(3-chlorophenyl)-4-(3-oxo-3-(phenylamino)propyl)-1H-imidazol-2-yl)-3-(1H-pyrazol-4-yl)benzamide] and `CC1(C)CCN(C(=O)CCc2cn(-c3ccccc3)c(NC(=O)c3cccc(-c4cn[nH]c4)c3)n2)CC1` [Example 35, N-(4-(3-(4,4-dimethylpiperidin-1-yl)-3-oxopropyl)-1-phenyl-1H-imidazol-2-yl)-3-(1H-pyrazol-4-yl)benzamide] cannot be ordered by IC50: < 50 nM for the first, < 50 nM for the second.

First: C[C@H]1CCCCN1C(=O)CCCCc1cn(-c2ccccc2)c(NC(=O)c2cccc(-c3cn[nH]c3)c2)n1 [Example 82, (S)—N-(4-(5-(2-methylpiperidin-1-yl)-5-oxopentyl)-1-phenyl-1H-imidazol-2-yl)-3-(1H-pyrazol-4-yl)benzamide]
Second: COC[C@H]1CCCN1C(=O)CCCCc1cn(-c2ccccc2)c(NC(=O)c2cccc(-c3cn[nH]c3)c2)n1 [Example 87, (R)—N-(4-(5-(2-(methoxymethyl)pyrrolidin-1-yl)-5-oxopentyl)-1-phenyl-1H-imidazol-2-yl)-3-(1H-pyrazol-4-yl)benzamide]
The IC50 of the first is higher: 50 to 100 nM for the first, < 50 nM for the second. The second is the more potent here.

First: COC[C@H]1CCCN1NC(=O)CCCCCc1cn(-c2ccccc2)c(NC(=O)c2cccc(-c3cn[nH]c3)c2)n1 [Example 99, (R)—N-(4-(6-((2-(methoxymethyl)pyrrolidin-1-yl)amino)-6-oxohexyl)-1-phenyl-1H-imidazol-2-yl)-3-(1H-pyrazol-4-yl)benzamide]
Second: O=C(Nc1nc(CCCCCCN2CCCCC2)cn1-c1ccccc1)c1cccc(-c2ccc3[nH]ccc3c2)c1 [Example 253, 3-(1H-indol-5-yl)-N-(1-phenyl-4-(6-(piperidin-1-yl)hexyl)-1H-imidazol-2-yl)benzamide]
The IC50 of the first is lower: < 50 nM for the first, 50 to 100 nM for the second. The first is the more potent here.

For `CNC(=O)Cc1cn(-c2ccccc2)c(NC(=O)c2ccc(-c3cn[nH]c3)cc2)n1` [Example 48, N-(4-(2-(methylamino)-2-oxoethyl)-1-phenyl-1H-imidazol-2-yl)-4-(1H-pyrazol-4-yl)benzamide], the IC50 was > 100 nM.
